Legend:
[1] = system: MHC class II molecules on murine and human antigen-presenting cells; conditions: cited from earlier work
dendritic cells = conditions: through modulation of dendritic cells; cited from earlier work
RR-MS patients [2] = test: European/Canadian MRI trial, GA-treated PGx cohort: response by SNP genotype ("combined" response definition); format: in vivo, human
From the text: (§1) Two clinical trials, the European/Canadian trial and U.S. pivotal trial, were used to identify associations between GA responsiveness and SNPs in RR-MS patients. Caucasian patients, that had participated in one of two previously completed randomized, double blind, placebo-controlled, multi-centric clinical trials, were solicited to partake in the present study. In both clinical trials, patients were required to have a diagnosis of definite MS (Poser C M, et al. Ann Neurol., 13(3):227-31 (1983) and a relapsing-remitting course (Lublin F D and Reingold S C, Neurology 46(4):907-11 (1996). Ultimately, 73 and 101 DNA samples of Caucasian patients from the U.S. pivotal and European/Canadian MRI trials, respectively, were analyzed. GA dosage was consistent for both trials (i.e. daily 20-mg subcutaneous injection). Table I compares multiple variables between the general cohort study and the PGx cohort study for the European/Canadian trial and the U.S. pivotal trial.
(§2) Subjects were selected from two previously completed randomized, double blind, placebo-controlled, multi-centric clinical trials. In both clinical trials, patients were required to have a diagnosis of definite MS (Poser C M, et al. New diagnostic criteria for multiple sclerosis: guidelines for research protocols. Ann Neurol., (1983);13(3):227-31) and a relapsing-remitting course (Lublin F D, Reingold S C. Defining the clinical course of multiple sclerosis: results of an international survey. National Multiple Sclerosis Society (USA) Advisory Committee on Clinical Trials of New Agents in Multiple Sclerosis. Neurology, (1996);46(4):907-11) 85 (33.9%) out of 251 patients from the U.S. pivotal trial (Johnson K P, et al. Copolymer 1 reduces relapse rate and improves disability in relapsing-remitting multiple sclerosis: results of a phase 111 multicenter, double-blind placebo-controlled trial. The Copolymer 1 Multiple Sclerosis Study Group. Neurology, (1995);45(7):1268-76; Johnson K P, et al. Extended use of glatiramer acetate (COPAXONE) is well tolerated and maintains its clinical effect on multiple sclerosis relapse rate and degree of disability. Copolymer 1 Multiple Sclerosis Study Group. Neurology, (1998);50(3):701-8), and 108 (45.2%) out of 239 patients from the European/Canadian MRI trial (Comi G, Filippi M, Wolinsky J S. European/Canadian multicenter, double-blind, randomized, placebo-controlled study of the effects of glatiramer acetate on magnetic resonance imaging—measured disease activity and burden in patients with relapsing multiple sclerosis. European/Canadian glatiramer acetate Study Group. Ann Neurol., (2001);49(3):290-7) (including patients from Holland, Italy, Belgium, UK, Canada) consented to participate in this study. The same dosage of GA (i.e. daily 20-mg subcutaneous injection) was used in both trials. Although in the original trials patients were equally assigned to either GA- or placebo-treatment, the ratios in the current PGx study were 37:36 and 4952, for the U.S. pivotal and the European/Canadian MRI trials, respectively. Table I indicates various variables between the General Cohort study and the PGx Cohort study for both the European/Canadian trial and the U.S. pivotal trial.
(§3) The primary endpoint in the European/Canadian MRI trial was the accumulated number of TI-enhancing lesions during 9 months, and an additional inclusion criterion was used calling for the presence of at least one TI-enhancing lesion on MRI screening. The primary end-point for the U.S. pivotal trial was the annualized relapse-rate after two years of treatment.
(§4) The procedure used stringent definitions for response to GA therapy. […] For validation purposes response was also treated as a continuous variable where number of new T1-enhancing lesions within the third trimester was analyzed as the […] variable. […]

[3] = system: skin graft, thyroid grafts; conditions: across minor and major histocompatibility barriers; cited from earlier work
[4] = system: murine models resembling inflammatory bowel disease; conditions: severe ulceration and inflammation; cited from earlier work
RR-MS = conditions: in vivo; cited from earlier work
RR-MS patients [5] = test: European/Canadian MRI trial, GA-treated PGx cohort: response by SNP genotype ("T1 lesion-free" response definition); format: in vivo, human
From the text: as §1, §2, §3, §4

[6] = CD80_rs527004, GEN = 0, GA(N = 41)
[7] = CD80_rs527004, GEN = 1, GA(N = 41)
[8] = CD86_rs1129055, GEN = 0, GA(N-35)
[9] = CD86_rs1129055, GEN = 1, GA(N-35)
[10] = CD86_rs1129055, GEN = 2, GA(N-35)
[11] = CD86_rs2001791, GEN = 0, GA(N = 48)
[12] = CD86_rs2001791, GEN = 1, GA(N = 48)
[13] = CD86_rs2001791, GEN = 2, GA(N = 48)
[14] = CD95_rs9827641, GEN = 0, GA(N-47)
[15] = CD95_rs9827641, GEN = 1, GA(N-47)
[16] = CTSS_rs1415148, GEN = 0, GA(N = 47)
[17] = CTSS_rs1415148, GEN = 1, GA(N = 47)
[18] = CTSS_rs1415148, GEN = 2, GA(N = 47)
[19] = CTSS_rs2275235, GEN = 0, GA(N = 43)
[20] = CTSS_rs2275235, GEN = 1, GA(N = 43)
[21] = CTSS_rs2275235, GEN = 2, GA(N = 43)
[22] = MBP_rs470929, GEN = 0, GA(N-32)
[23] = MBP_rs470929, GEN = 1, GA(N-32)
[24] = MBP_rs470929, GEN = 2, GA(N-32)
[25] = TCRB_rs71878, GEN = 0, GA(N = 43)
[26] = TCRB_rs71878, GEN = 1, GA(N = 43)
[27] = TCRB_rs71878, GEN = 2, GA(N = 43)

glatiramer acetate [GA]
binding to MHC class II molecules [1]: very rapid, high, and efficient binding
Th2 cell development and IL-10 production (dendritic cells): promotes T helper 2 (Th2) cell development and increased IL-10 production
percentage of responders out of carriers of genotype (RR-MS patients [2]; [6]): (35.29%)
responders/carriers of genotype (RR-MS patients [2]; [6]): 12/34
percentage of responders out of carriers of genotype (RR-MS patients [2]; [7]): 85.71%
responders/carriers of genotype (RR-MS patients [2]; [7]): 6/7
responders/carriers of genotype (RR-MS patients [2]; CD80_rs527004, GEN = 2, GA(N = 41)): 0/0
percentage of responders out of carriers of genotype (RR-MS patients [2]; [8]): (16.67%)
responders/carriers of genotype (RR-MS patients [2]; [8]): 3/18
percentage of responders out of carriers of genotype (RR-MS patients [2]; [9]): (60%)
responders/carriers of genotype (RR-MS patients [2]; [9]): 9/15
percentage of responders out of carriers of genotype (RR-MS patients [2]; [10]): (50%)
responders/carriers of genotype (RR-MS patients [2]; [10]): 1/2
percentage of responders out of carriers of genotype (RR-MS patients [2]; [11]): (28.21%)
responders/carriers of genotype (RR-MS patients [2]; [11]): 11/39
percentage of responders out of carriers of genotype (RR-MS patients [2]; [12]): 62.5%)
responders/carriers of genotype (RR-MS patients [2]; [12]): 5/8
percentage of responders out of carriers of genotype (RR-MS patients [2]; [13]): (100%)
responders/carriers of genotype (RR-MS patients [2]; [13]): 1/1
percentage of responders out of carriers of genotype (RR-MS patients [2]; [14]): (22.53%)
responders/carriers of genotype (RR-MS patients [2]; [14]): 5/24
percentage of responders out of carriers of genotype (RR-MS patients [2]; [15]): (31.25%)
responders/carriers of genotype (RR-MS patients [2]; [15]): 5/16
percentage of responders out of carriers of genotype (RR-MS patients [2]; CD95_rs9827641, GEN = 2, GA(N-47)): ((71.43%)^
percentage of responders out of carriers of genotype (RR-MS patients [2]; [16]): (15%)
responders/carriers of genotype (RR-MS patients [2]; [16]): 3/20
percentage of responders out of carriers of genotype (RR-MS patients [2]; [17]): (42.86%)
responders/carriers of genotype (RR-MS patients [2]; [17]): 9/21
percentage of responders out of carriers of genotype (RR-MS patients [2]; [18]): (83.33%)
responders/carriers of genotype (RR-MS patients [2]; [18]): 5/6
percentage of responders out of carriers of genotype (RR-MS patients [2]; [19]): (19.35%)
responders/carriers of genotype (RR-MS patients [2]; [19]): 6/31
percentage of responders out of carriers of genotype (RR-MS patients [2]; [20]): (66.67%)
responders/carriers of genotype (RR-MS patients [2]; [20]): 4/6
percentage of responders out of carriers of genotype (RR-MS patients [2]; [21]): (83.33%)
responders/carriers of genotype (RR-MS patients [2]; [21]): 5/6
percentage of responders out of carriers of genotype (RR-MS patients [2]; [22]): (18.18%)
responders/carriers of genotype (RR-MS patients [2]; [22]): 2/11
percentage of responders out of carriers of genotype (RR-MS patients [2]; [23]): (43.75%)
responders/carriers of genotype (RR-MS patients [2]; [23]): 7/16
percentage of responders out of carriers of genotype (RR-MS patients [2]; [24]): (100%)
responders/carriers of genotype (RR-MS patients [2]; [24]): 5/5
amelioration of graft rejection [3]: prolongation of skin graft survival and inhibition of functional deterioration of thyroid grafts
macroscopic colonic damage [4]: reduce macroscopic colonic damage
relapse rate and CNS activity (RR-MS): effectiveness in reducing relapse rate and CNS activity
percentage of responders out of carriers of genotype (RR-MS patients [5]; [25]): 62.07%
responders/carriers of genotype (RR-MS patients [5]; [25]): 18/29
percentage of responders out of carriers of genotype (RR-MS patients [5]; [26]): (90%)
responders/carriers of genotype (RR-MS patients [5]; [26]): 9/10
percentage of responders out of carriers of genotype (RR-MS patients [5]; [27]): (100%)
responders/carriers of genotype (RR-MS patients [5]; [27]): 4/4

From patent publication US20060240463A1, “Markers associated with the therapeutic efficacy of glatiramer acetate” (Rappaport Family Institute for Research in the Medical …, priority 2005, published 2006)
